According to patent US12066428B2, “Cell-substrate impedance monitoring of cancer cells” (Agilent Technologies, Inc., priority 2016, dated 2024):

Tests used:
Type in all cases: cell-based, human
H460 cells = assay: Time-dependent cell index of drug-treated cells (cell-substrate impedance)
Procedure: The device was positioned on a device station that was located in an incubator maintaining conditions of 37° C. and 5% CO2. The cells were cultured and treated at their exponential growth phase with different concentrations of paclitaxel. The dynamic response of the cells to different doses of paclitaxel was monitored by monitoring cell-substrate impedance in real time every 15 minutes for 50 hours after treatment using a cell-substrate impedance monitoring system. The cell-substrate impedance monitoring system calculated the cell index at each time point monitored and plotted the cell index as a function of time.
The device was positioned on a device station that was located in an incubator maintaining conditions of 37 degrees C. and 5% CO2.

A549 cells [1] = assay: RT-CES dynamic monitoring of drug interaction with target cells; settings: A549, highest concentration; cells later recover and re-proliferate
Procedure: Drug Treatment and Cytotoxicity Assessment.
In order to observe the kinetics of drug interaction with target cells, A549 non-small lung cancer cells were seeded in ACEA 96× E-plate™ and continuously monitored until the cells reached the log growth phase at which point different concentrations of paclitaxel were added to the cells at the indicated final concentration. […] While it remains to be determined if this phenomenon is due to metabolism and inactivation of paclitaxel or due to the emergence of paclitaxel-resistant subpopulation, this experiment clearly exemplifies the tremendous advantage of real-time measurement which is offered by the RT-CES system and allows the user to the opportunity to observe and assess the entire history of drug interaction with the target cells which provides further information in addition to cell viability or cytotoxicity. The phenomenon observed in FIG. 20A would've been easily missed by traditional single-point assays such as MTT.
Yet another major advantage of using the RT-CES system to continually monitor the interaction of drugs with target cells is that the user can obtain insight into the mechanism of action of the drug of interest. […]

A549 cells [2] = assay: A549 target cells incubated with inhibitors alone (RT-CES control); settings: A549 target cells without NK-92
Excerpt: Inhibition of NK-mediated cytolysis of target cells by agents which block the signaling pathways leading to cytotoxicity. The interaction of NK receptors at the cell membrane by target cells leads to the activation of signal transduction machinery which results in cytolysis of target cells (Vivier et al., 2004). One of the key signaling cascades which regulate the fusion of perforin and granzyme containing secretory granules at the NK/target cell synaptic junction is the phosphatidyl-inositol-3-kinase (PI3K), Rac and mitogen activated protein kinase 1 (Erk) pathway (Djeu et al., 2002; Vivier et al., 2004). In order to determine the specificity of the signaling pathways in regulating NK-mediated cytotoxicity, we therefore sought to utilize specific inhibitors of the PI3K and Erk pathways. NK-92 cells were incubated with both the PI3K inhibitor Wortmannin and the Erk pathway inhibitor PD98059 or DMSO as a control and then added to A549 target cells. […] We calculated percent inhibition of cytolysis for both inhibitors at different time points after NK addition. […] In summary, the experiments shown here clearly establish that the RT-CES system can be used to monitor NK-mediated cytotoxic activity against a variety of different cell lines.

[3] = test system: NK-92-mediated cytolysis of A549 cells; assay: Inhibition of NK-92-mediated cytolysis by signaling pathway inhibitors (RT-CES); settings: NK-92 pre-incubated with inhibitor, E/T 16:1
Procedure: Cytolytic analysis. Target cells were seeded into the wells of either 16-well or 96-well E-plate in 100 μL of media. Cell growth was dynamically monitored using the RT-CES system for a period of 24-34 hours, depending on the experiment until they reached log growth phase and formed a monolayer. Effector cells at different concentrations were then directly added into individual wells containing the target cells. For background control, effector cells were added to a well without target cells. After addition of the effector cells, the E-plate was returned to the e-plate station and the measurements were automatically collected by the analyzer every 15 minutes for up to 20 hours.
Data analysis. The integrated software is able to display entire history of the experiment from seeding the cells to termination of cytolysis. […] The cell index here is determined by calculating, for each measurement frequency f, the relative-change (Relative change (f)=(Rcell (f)−Rbackground(f))/Rbackground(f)) in resistance (a component of impedance) of a well when target cells are present in the well (Rcell (f)) with respect to background resistance (Rbackground) of the well when no cell is present and only cell culture medium is in the well, and then finding the maximum relative-change in resistance for all frequencies measured (Cell Index=max {Relative change (f)} for all measurement frequencies). […]

Compound | time over which cell index exhibited a near-constant value (H460 cells; H460, 33 nanomolar) | cell index response after compound addition (H460 cells; H460, concentrations between 67 nanomolar and 500 nanomolar) | effect on A549 cells (Cell Index trace) (A549 cells [1]) | effect of inhibitor alone on A549 baseline (A549 cells [2]) | effect on NK-92-mediated cytolysis of A549 cells [3]
CC(=O)O[C@H]1C(=O)[C@@]2(C)[C@H]([C@H](OC(=O)c3ccccc3)[C@]3(O)C[C@H](OC(=O)[C@H](O)[C@@H](NC(=O)c4ccccc4)c4ccccc4)C(C)=C1C3(C)C)[C@]1(OC(C)=O)CO[C@@H]1C[C@@H]2O [paclitaxel] | about 15 hours | gradual decrease in cell index after compound addition | initially induces a cytotoxic effect | – | –
COc1cccc(-c2cc(=O)c3ccccc3o2)c1N [PD98059] | – | – | – | minimal effect on the baseline | dose-dependently inhibited
